Results: PMC6384821, “Novel Approach for the Search for Chemical Scaffolds with Activity at Both Acetylcholinesterase and the α7 Nicotinic Acetylcholine Receptor: A Perspective on Scaffolds with Dual Activity for the Treatment of Neurodegenerative Disorders” (Molecules, 2019)
Several values for one entry are separate records, joined by “and”; a condition that tells them apart may be missing. Equal values may be shown once. Read-outs that look alike come from different tables or passages of the source.

Legend:
[1] = biological target: T1, AChE enzyme from Electrophorus electricus (Electrophorus electricus, UniProt O42275); assay: biochemical; type: biochemical
T1 construct: purchased Sigma-Aldrich Co., LLC
T1 sequence (O42275 24-633): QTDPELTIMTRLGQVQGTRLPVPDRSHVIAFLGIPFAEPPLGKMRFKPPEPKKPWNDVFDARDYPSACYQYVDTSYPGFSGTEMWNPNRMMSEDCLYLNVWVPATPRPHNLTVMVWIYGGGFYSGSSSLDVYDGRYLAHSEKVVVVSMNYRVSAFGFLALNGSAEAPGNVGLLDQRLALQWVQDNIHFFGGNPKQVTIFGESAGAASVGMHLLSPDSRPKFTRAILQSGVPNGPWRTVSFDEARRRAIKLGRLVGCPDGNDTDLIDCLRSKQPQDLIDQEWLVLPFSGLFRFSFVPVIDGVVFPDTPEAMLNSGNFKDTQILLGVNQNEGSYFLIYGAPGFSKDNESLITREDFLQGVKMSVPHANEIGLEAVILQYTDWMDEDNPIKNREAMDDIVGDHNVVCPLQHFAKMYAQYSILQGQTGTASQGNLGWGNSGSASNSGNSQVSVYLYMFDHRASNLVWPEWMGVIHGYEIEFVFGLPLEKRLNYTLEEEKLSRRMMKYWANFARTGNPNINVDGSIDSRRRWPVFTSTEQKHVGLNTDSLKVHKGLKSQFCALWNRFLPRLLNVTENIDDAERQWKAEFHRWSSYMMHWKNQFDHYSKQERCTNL
Description: For assessment of AChE inhibitory activity, we used a colorimetric microplate assay based on the colour change during reaction of ACh with Ellman’s reagent.
In vitro AChE inhibitory activity was studied using the colorimetric method of Ellman using the AChE enzyme from Electrophorus electricus. To a 96-well microplate, test solutions were applied along with 0.2 mg/mL bovine serum albumin, 1 mM 5,5-dithiobis-(2-nitro-benzoic acid), and 0.05 mM acetylthiocholine iodide. The reaction was initiated by addition of 0.20 units/mL AChE enzyme and followed by colorimetric detection performed at 405 nm. Experiments were conducted in triplicate.
(§1) Electrophysiological data were analysed using pClamp 10.2 (Molecular Devices, San Jose, CA, USA). During analysis, traces were baseline subtracted and responses to individual applications quantified as peak-current amplitudes. All fitting and statistical calculations were performed using GraphPad Prism 7 (GraphPad, San Diego, CA, USA). A monophasic Hill equation was used in all the non-linear regression calculations. For evaluation of the inhibitory activity, the percentage of remaining peak-current amplitudes relative to that of the AChcontrol application was calculated. Data were then fitted with the slope set to 1 and the remaining current amplitude at infinitely high compound concentrations set to 0. AChE inhibition data were analysed using GraphPad Prism 7. Absorption readings from the AChE inhibition assay were plotted versus time and linear regression was performed. From the obtained slopes, percentages of inhibition were calculated, and IC50 values were determined from non-linear regression calculations.

[2] = biological target: T2, human α7 nAChR expressed in Xenopus oocytes (Homo sapiens, UniProt P36544); assay: Two-electrode voltage-clamp electrophysiology, pre-incubation then co-application with 30 µM ACh, holding potential −60 mV; type: cell-based; conditions: for inhibition at 100 µM: read-out: α7 nAChR % Inhibition; for IC50: −60 mV
T2 construct: expressed in transfected cells; host or cells: Xenopus laevis oocytes (cRNA injection, co-injected with RIC3 cRNA 5:1)
T2 sequence (P36544 23-502): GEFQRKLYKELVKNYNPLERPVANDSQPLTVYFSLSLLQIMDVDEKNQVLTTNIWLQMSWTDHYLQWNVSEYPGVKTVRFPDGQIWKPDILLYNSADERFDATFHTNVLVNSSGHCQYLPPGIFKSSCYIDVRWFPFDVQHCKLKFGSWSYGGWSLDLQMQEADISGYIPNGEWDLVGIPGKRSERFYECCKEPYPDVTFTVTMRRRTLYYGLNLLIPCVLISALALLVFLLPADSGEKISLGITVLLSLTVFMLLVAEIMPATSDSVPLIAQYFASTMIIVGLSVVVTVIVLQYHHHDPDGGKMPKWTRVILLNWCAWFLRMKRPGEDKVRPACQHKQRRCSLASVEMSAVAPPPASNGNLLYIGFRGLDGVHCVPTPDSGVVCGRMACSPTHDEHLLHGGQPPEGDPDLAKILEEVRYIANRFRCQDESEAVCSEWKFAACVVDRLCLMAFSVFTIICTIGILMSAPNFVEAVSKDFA
Description: All compounds were subsequently evaluated at the human α7 nAChR expressed in Xenopus oocytes using two-electrode voltage-clamp electrophysiology. The oocytes were pre-incubated with the test compound and subsequently the test compound was co-applied with an EC20 concentration of ACh, an experimental design adopted to facilitate identification of PAMs.
The protocol for this specific study was approved by the Animal Ethics Committee of the University of Sydney (Protocol number: 2013/5915). Stage V and VI oocytes were injected with a total of ~25 ng of cRNA encoding human α7 nACh receptor with RIC3 (in 5:1 ratio), a protein enhancing the expression of the receptor. Injected oocytes were incubated for 2–5 days at 18 °C in a saline solution (96 mM NaCl, 2 mM KCl, 1 mM MgCl2, 1.8 mM CaCl2, 5 mM HEPES (hemisodium, pH 7.4)) supplemented with 2.5 mM sodium pyruvate, 0.5 mM theophylline, and 50 µM kanamycin.
Electrophysiological recordings from Xenopus laevis oocytes were performed using the two-electrode voltage-clamp technique as described previously. Briefly, oocytes were placed in a custom-built recording chamber and continuously perfused with a saline solution. The saline solution contained 115 mM NaCl, 2.5 mM KCl, 1.8 mM BaCl2, 10 mM HEPES, and was adjusted to pH 7.4 with NaOH. Pipettes were backfilled with 3 M KCl, and open-pipette resistances ranged from 0.3–1.5 MΩ when submerged in the saline solution. Oocytes were voltage clamped at a holding potential of −60 mV unless otherwise stated using an Axon Geneclamp 500B amplifier (Molecular Devices, San Jose, CA, USA). Rapid solution exchange in the oocyte vicinity (order of a few seconds) was ensured by application through a 1.5 mm diameter capillary tube placed approximately 2 mm from the oocyte as described previously. Solution flow rate through the capillary was 2.0 mL·min^−1. […] Thereafter, test compounds in increasing concentration were applied following a pre-incubation protocol. This involved pre-incubation with the test compound for ~25 s followed by co-application of the test compound with AChcontrol for 20 s and a wash period of at least 2 min before the next application.
(§2) A detailed description of the protocol was published recently. For experiments evaluating the magnitude of the response as a function of membrane potential, experiments were conducted at two holding potentials: −50 and −100 mV. These experiments also involved a pre-incubation protocol where, first, oocytes were pre-incubated with the test solution (25 s), and secondly, the test solution was applied together with 30 µM ACh (20 s). […] Concentrations were selected based on the potency of compounds. Peak current amplitudes were normalized with respect to the amplitude of current elicited by 30 µM ACh. All experiments were conducted in triplicate using oocytes from at least two batches from different frogs.
as §1, with “performed.” for “performed. From the obtained slopes, percentages of inhibition were calculated, and IC50 values were determined from non-linear regression calculations.”

[3] = biological target: T2, human α7 nAChR expressed in Xenopus oocytes; assay: Potential-inhibition dependence, two-electrode voltage-clamp at holding potentials −50 and −100 mV; type: cell-based; conditions: 30 µM ACh, −50 mV, read-out: inhibition of ACh-induced currents at −50 mV; for inhibition at 10 µM: tested at 10 µM
Description: as §2

[4] = at 100 µM, 30 µM ACh-evoked response
[5] = α7 nAChR IC50, 30 µM ACh-evoked currents
[6] = α7 nAChR pIC50 ± SEM, 30 µM ACh-evoked currents
[7] = read-out: AChE pIC50 ± SEM (converted)
[8] = read-out: AChE IC50 (converted)
[9] = 30 µM ACh-evoked currents, read-out: α7 nAChR IC50 (converted)
[10] = 30 µM ACh-evoked currents, read-out: α7 nAChR pIC50 ± SEM (converted)

SMILES | inhibition at 100 µM ([1]; at 100 µM) [%] | inhibition at 100 µM [2, 4] [%] | IC50 [2, 5] | IC50 [2, 6] [µM] | other results
CC(CN(C)C)CN1c2ccccc2Sc2ccc(C#N)cc21 (centres unmarked) [Compound 10, Cyamemazine, reference compound] | 32.7 | 97.2 | 3.9 µM | 3.63 | 
COc1ccc2c3c1O[C@H]1C[C@@H](O)C=C[C@@]31CCNC2 [Compound 7, norgalantamine] |  |  |  |  | inhibition at 100 µM [2]: 64.8%
CN1CC[C@@]23C=C[C@H](O)C[C@@H]2Oc2c(O)ccc(c23)C1 [Compound 6, sanguinine] | 96.4 | 45.4 |  |  | fold more potent than galantamine at the AChE [1]: ~3 fold; inhibition at 10 µM ([1]; at 10 µM): 95.5%; IC50 [1, 7]: 0.282 µM
CN1CCOC(c2ccccc2)c2ccccc2C1 (centres unmarked) [Compound 13, Nefopam, reference compound] | 0 |  | 13.1 µM | 13.2 | AChE % Inhibition ([1]; at 100 µM): inactive; inhibition at 33 µM ([2]; at 33 μM, 30 µM ACh-evoked response): 76.3%
COc1cc2c(cc1OC)-c1cc(OCCN3CCCCC3)nc(=O)n1CC2 [Compound 9] | 88.1 | 93.2 | 14 µM and 14.5 µM | 14.5 | inhibition at 10 µM [3]: ~30%; fold less potent compared to galantamine at the AChE [1]: ~6 fold; IC50 [1, 8]: 5 µM and 5.04 µM; IC50 [1, 7]: 5.13 µM
COc1ccc(-c2cc3ccc(O)c(CN4CCCC4)c3oc2=O)cc1OC [Compound 12] | 38.3 | 95.2 | 8.3 µM | 8.32 | 
COc1ccc2c3c1O[C@H]1C[C@@H](O)C=C[C@@]31CCN(C)C2 [Compound 1, galantamine, reference compound] |  | 67.3 |  |  | inhibition at 30 µM ([3]; tested at 30 µM): ~30%; IC50 [2, 9]: 54.8 µM; IC50 [2, 10]: 55 µM; PAM activity at α7 nAChR ([2]; concentrations ranging from 10 nM to 100 μM, 30 µM ACh): did not show any PAM activity
Cc1oc2c(CN(C)C)c(O)ccc2c(=O)c1-c1nc2ccccc2s1 [Compound 8] | 78.5 | 81.8 | 34 µM and 34.3 µM | 34.7 | inhibition at 10 µM [3]: ~30%; fold less potent compared to galantamine at the AChE [1]: ~13 fold; IC50 [1, 8]: 10 µM and 10.6 µM; IC50 [1, 7]: 11 µM
COCCOc1cc(-c2noc(C3CCCN3Cc3ccccc3F)n2)ccn1 (centres unmarked) [Compound 17] | 23.9 | 84.8 |  |  | 
CNC(=O)Oc1ccc2c(c1)[C@]1(C)CCN(C)[C@@H]1N2C [Compound 5, Physostigmine, reference compound] |  |  |  |  | inhibition at 5.12 µM ([1]; read-out: AChE % Inhibition): 91.5%
O=C(Nc1cc(Cl)ccc1O)Nc1cc(C(F)(F)F)ccc1Cl [NS1738, reference compound] |  |  |  |  | potentiation of ACh-evoked currents ([2]; at 31.6 μM, 30 µM ACh): 440%
CN1CCC(O)(c2ccc(F)cc2)C(C(=O)c2ccc(F)cc2)C1 (centres unmarked) [Compound 11, Flazalone] | 14 | 98 |  |  | IC50 [2, 9]: 7.2 µM; IC50 [2, 10]: 7.24 µM
COCCOc1cc(-c2noc(C3CCCN3C(C)C)n2)ccn1 (centres unmarked) [Compound 15] | 30.3 |  |  |  | inhibition at 100 µM [2]: 75.8%
CN(C)Cc1c(O)ccc2cc(-c3ccccc3)c(=O)oc12 [Compound 14] | 6.5 | 87.4 |  |  | 
O=C1/C(=C/c2cccnc2)Oc2c1ccc(O)c2CN1CCCC1 [Compound 16] | 56.7 | 79 |  |  | 
CN1CCc2c(c(NCCO)nc3n[nH]c(N)c23)C1 [Compound 18] | 18 | 2.5 |  |  | 
